This is an account of results in paper PMC4116524, “A virtual screen identified C96 as a novel inhibitor of phosphatidylinositol 3-kinase that displays potent preclinical activity against multiple myeloma in vitro and in vivo” (Oncotarget, 2014).

SMILES strings stand for the structures.

For series [1], the system named is c-Src phosphorylation in LP1 and JJN3 cells. The series can be described thus: c-Src phosphorylation, immunoblotting. The conditions noted are these: increasing concentrations, 24 hrs. Type of series: cell-based. As for the experimental part:
(§1) To elucidate this specificity, we first evaluated its effects on IGF-1R because IGF-1R as a receptor tyrosine kinase activates PI3K in the presence of IGF-1. To exclude the potential effects of C96 on IGF-1 signaling, LP1 and JJN3 cells were starved overnight followed by C96 or S14161 treatment for 2 hrs, and IGF-1 stimulation for 15 min. As expected, IGF-1 triggered AKT phosphorylation but it was suppressed by both C96 and the proven PI3K inhibitor S14161 without affecting total AKT expression (Figure 3A). […] Next, we evaluated other kinases including non-receptor kinase c-Src and a PI3K parallel kinase ERK which transduces external cellular signals. Both LP1 and JJN3 cells were treated with C96 at increasing concentrations that inhibited AKT and mTOR activation (Figure 2C).
(§2) Figure 3 C96 inhibits AKT but not IGF-1R, ERK or c-Src kinase activation (A) LP1 and JJN3 cells were starved overnight, then treated with 100 (μM of C96 or S14161 for 2 hrs, followed by IGF-1 (100 ng/mL) for 15 min. After incubation, cells were harvested and the expression of p-AKT, p-IGF-1R, total AKT (T-AKT), and IGF-1R proteins were detected by immunoblotting. (B) LP1 and JJN3 were treated with C96 at indicated concentrations for 24 hrs followed by immunoblotting assay for the expression of p-Src, c-Src, p-ERK, and ERK. GAPDH was used as a loading control. […]
In general terms: A western blot detects proteins with antibodies after separation by electrophoresis.

Series [2] concerns AKT phosphorylation in OPM2 cells. In words: IGF-1-stimulated AKT phosphorylation, immunoblotting. Type of series: cell-based. The conditions noted are these: OPM2 cells (no PTEN), 2 hrs, IGF-1 15 min. Here is the method:
(§3) MM cell lines LP1 and OPM2 were starved overnight before being treated with C96 (0–100 μM) or S14161 (100 μM, a positive control) for a short period (2 hrs), followed by IGF-1 stimulation for 15 min. […] (Figure 2A). In LP1 cells, C96 at 25 μM and 50 μM led to a 50% and 90% decrease in AKT phosphorylation, respectively, in the 2-hr treatment. […] In the time-course study, AKT activation was suppressed by C96 at 50 μM within 0.5 hrs (30 min) (Figure 2B).
(§4) Figure 2 C96 inhibits AKT and mTOR signaling (A) LP1 and OPM2 were starved overnight, then treated with C96 at the indicated concentrations, or 100 μM of S14161 for 2 hrs, followed by IGF-1 (100 ng/mL) for 15 min. Cells were collected for the analysis of the expression of p-AKT and total AKT (T-AKT) by immunoblotting. (B) LP1 and OPM2 cells were starved overnight, then treated with C96 (50 μM) for different time periods, or S14161 (100 (μM) for 2 hrs, followed by IGF-1 (100 ng/mL) for 15 min. Cells were for the analysis of the expression of p-AKT and T-AKT by immunoblotting. (C) LP1, OPM2, and JJN3 cells were treated with C96 at the indicated concentrations for 24 hrs. Cell lysates were prepared and subjected to immunoblotting assay against p-AKT, AKT, p-mTOR, mTOR, p-4E-BP1, and 4E-BP1. GAPDH was used as a loading control.
(§5) Cells were treated with or without C96 for 24 hrs before being applied to lysate preparation in a lysis buffer (50 mM Tris-HCI, pH 7.4, 1% NP-40, 0.5% Na-deoxycholate, and 0.1% SDS, 150 mM NaCl, 2 mM EDTA, 2 mM Na3VO4, and 5 mM NaF). Equal amounts (30 μg) of total proteins were subjected to sodium dodecyl sulfate–polyacrylamide gel electrophoresis (SDS-PAGE) separation, followed by immunoblotting analyses with specific antibodies. Antibodies against PARP, caspase-3, AKT, p-AKT(S473), 4E-BP1, p-4E-BP1(S65), IGF-1R, p-IGF-1R, ERK(p42/p44), and p-ERK(p42/p44) were purchased from Cell Signaling Technologies. Antibodies against mTOR, p-mTOR(S2448), p70S6K, p-p70S6K(S424), and GAPDH were obtained from Abgent (Suzhou, China). Horseradish peroxidase-conjugate secondary antibodies against mouse or rabbit and GAPDH were purchased from Abgent. All immunoblotting signals were further analyzed with Quality One Quality One software (Bio-Rad, Berkeley, CA, USA).

Series [3] concerns AKT phosphorylation in LP1 cells. The description is as above. Conditions: for decrease in AKT phosphorylation: LP1 cells, 2-hr treatment, IGF-1 15 min. Type of series: cell-based. Here is the method: as §3, §4, §5
In series [4] the test system is phosphorylation of mTOR, p70S6K and 4E-BP1 in LP1, OPM2 and JJN3 cells. The series can be described thus: mTOR signaling pathway, immunoblotting. Type of series: cell-based. The conditions noted are these: LP1, OPM2, JJN3, 24 hrs, concentration-dependent. Here is the method: Figure 2 C96 inhibits AKT and mTOR signaling (A) LP1 and OPM2 were starved overnight, then treated with C96 at the indicated concentrations, or 100 μM of S14161 for 2 hrs, followed by IGF-1 (100 ng/mL) for 15 min. Cells were collected for the analysis of the expression of p-AKT and total AKT (T-AKT) by immunoblotting. […]
The PI3K/AKT plays a critical role in regulating a myriad of downstream effectors, of which the most prominent ones are mTOR/p70S6K/4E-BP1. […] To examine whether PI3K inhibition led to deregulation of the mTOR signaling pathway, we further measured the changes of mTOR, p70S6K and 4E-BP1 in MM cell lines LP1, OPM2, and JJN3 in the presence of C96.
Cells were treated with or without C96 for 24 hrs before being applied to lysate preparation in a lysis buffer (50 mM Tris-HCI, pH 7.4, 1% NP-40, 0.5% Na-deoxycholate, and 0.1% SDS, 150 mM NaCl, 2 mM EDTA, 2 mM Na3VO4, and 5 mM NaF). […] All immunoblotting signals were further analyzed with Quality One Quality One software (Bio-Rad, Berkeley, CA, USA).

Series [5] relates to MM cell lines LP1, OPM2, JJN3, OCI-My5, RPMI-8226, U266, KMS11. The series can be described thus: Growth inhibition assay (MTT). Type of series: cell-based. The conditions noted are these: panel of MM cell lines, within 72 hrs. Here is the method: MM cells were dispensed in 96-well plates at a density of 8×10^3 cells per well and treated with increasing concentrations of C96 for 72 hrs, and the growth inhibitory effect of C96 on MM cells was assessed by an MTT assay as reported previously. To show the effect of C96 on cell growth in the presence of growth factor IGF-1, MM cells were first maintained in IMDM media containing 0.5% FBS for 12 hrs, followed by C96 treatment alone or in combination with 100 ng/mL of IGF-1. Cells were then incubated for another 24 hrs, relative cell proliferation was analyzed by an MTT assay. […]
www.impactjournals.com/oncotarget/ Oncotarget, Supplementary Materials 2014 SUPPLEMENTARY FIGURES AND TABLE
Supplementary Figure S1: C96 inhibits multiple myeloma cell proliferation. MM cell lines were treated with C96 with indicated concentrations for 72 hrs, followed by MTT assay. […]

Series [6] relates to AKT phosphorylation in LP1 and JJN3 cells. In words: IGF-1-stimulated AKT phosphorylation, immunoblotting (Figure 3A). In kind it is cell-based. The conditions noted are these: 100 μM, 2 hrs, IGF-1 15 min. Here is the method:
as §1, §2

On to `O=C1NC(=O)C(=CC=Cc2cccs2)C(=O)N1` [C96, 5-(3-(2-thienyl)-2-propen-1-ylidene)-2,4,6(1H,3H,5H)-pyrimidinetrione], for which the “phosphorylation level of c-Src” value in series [1] is “did not decrease”. For the same molecule, in series [2], the AKT phosphorylation entry is “markedly decreased”. Moreover, the “time within which AKT activation was suppressed” value in series [3] (50 μM, time-course study, LP1 and OPM2 (Figure 2B)) is not above 0.5 h. Further, the “decrease in AKT phosphorylation” value came out at 50% in series [3] (25 μM) and 90% in series [3] (50 μM). Further, in series [4], the “phosphorylation levels of mTOR, p70S6K and 4E-BP1” value is “downregulated”. Moreover, the “cell proliferation and viability (MTT)” value in series [5] was “suppressed cell proliferation and reduced cell viability”. Further, the “AKT phosphorylation triggered by IGF-1” value in series [6] was “suppressed”. Besides, the “100 mg/kg body weight dose as fraction of the oral LD50” value in the series “Oral LD50” was 1/10.
